{"source": "patent US9758787B2", "about": "“Engineering microorganisms” (DSM NUTRITIONAL PRODUCTS AG, priority 2011, dated 2017)", "key": {"[1]": {"test_system": "Thraustochytrium sp. ONC-T18", "test": "Effects of zeocin and salinity on colony numbers and colony diameter of ONC-T18 (Example 4)", "assay_type": "cell-based", "settings": "for colony numbers: 10 days; for colony numbers / colony growth rates (diameter in mm): mean of two plates", "description": "One hundred μL of ONC-T18 cell suspension diluted at 1:500 from a 2-day culture were spread onto ONC-T18-GM0 plates containing various concentrations of antibiotic zeocin and sea salt. Inoculated plates were incubated in a 25° C. incubator for 10 days. The numbers of the colonies on each plate were counted. […] In plates containing 8.5 g/L sea salt without zeocin, only one colony was observed. In plates containing 18 g/L sea salt without zeocin, colony numbers were similar to that of plates containing 35 g/L sea salt without zeocin. […] Therefore, for this work, 18 g/L sea salt was used to make ONC-T18-GM0 for selection of ONC-T18 transformants transformed with constructs bearing a zeocin-resistant gene expression cassette."}, "[2]": {"test_system": "transformed ONC-T18 strains", "test": "Growth on zeocin plates after six colony passages without zeocin, transformed strains (Example 12)", "assay_type": "cell-based, Thraustochytrium sp. ONC-T18", "settings": "zeocin 200 μg/mL media", "description": "(§1) Transgene stability is important for certain applications of genetic engineering in industrial microbial strain improvement programs where microorganisms are used in pharmaceutical or industrial processes, and where product quantity and quality are paramount. We therefore carried out transgene stability estimate assays of transformed ONC-T18 strains. As for the growth rate assays described in Example 7, inocula of four strains of each transformation as well as their ancestor wild type strains were spotted on ONC-T18-GM0 agar plates in the absence of zeocin and incubated at 25° C. for seven days. (Each transformation had been performed using one of the five different plasmid constructs, each of which bears various zeocin-resistant gene expression cassettes driven by a combination of different promoters and terminators). Then, using the same method, strains were transferred on a new fresh ONC-T18-GM0 agar plate and incubated at 25° C. for 7 days; colony passages were carried out 6 times. Finally, strains were transferred back onto ONC-T18-GM0 agar plates either without or with zeocin at a concentration of 200 μg/mL media."}, "[3]": {"test_system": "Thraustochytrium sp. ONC-T18", "test": "Effects of different antibiotics on growth of ONC-T18 on ONC-T18-GM0 agar plates (Example 3)", "assay_type": "cell-based", "parameters": "sensitivity of ONC-T18 cells to zeocin: dose or concentration left out as unconfirmed", "description": "Thraustochytrium sp. ONC-T18 was grown on agar plates (20 g agar per liter ONC-T18-GM0). One loop of inoculum of ONC-T18 was inoculated into 50 mL of liquid ONC-T18-GM0, and the culture was incubated in a shaker incubator at 25° C. at 250 rpm for 36 hours. Half a milliliter of the culture was transferred into a 1.5 mL tube and vortexed at full speed for 30 seconds to break down cell clusters, then diluted in 50 mL sterilized water. One hundred microliters of the resulting solution was spread onto each ONC-T18-GM0 medium plate. Each plate contained one of various antibiotics at one of various concentrations. Plates were incubated at 25° C. and emergence and development of colonies were observed daily."}, "[4]": {"settings": "cited from earlier work"}, "[5]": {"test_system": "wild type strain of ONC-T18", "test": "Zeocin as mutagenic agent on ONC-T18 agar plates (Example 13)", "assay_type": "cell-based, Thraustochytrium sp. ONC-T18", "description": "The marine protist wild type strain of ONC-T18 was chosen as a model system to test if zeocin would be effective to induce mutagenesis in this strain. One full loop of the inocula of ONC-T18, growing in the agar plates containing ONC-T18-GM0 medium[5 g/L yeast extract, 5 g/L peptone, 10 g/L D(+)-glucose, 35 g/L artificial sea salt, 1.25 mg/L trace elements (5 g/L NaH2PO4.H2O, 3.15 g/L FeCl3.6H2O, 4.36 g/L Na2EDTA.2H2O, 0.6125 mg/L CuSO4.5H2O, 0.0597 g/L Na2MoO4.2H2O, 0.022 g/L ZnSO4.7H2O, 0.01 g/L CoCl2.6H2O, 0.18 g/L MnCl2.4H2O, 13 μg/L H2SeO3, 2.7 mg/L NiSO4.6H2O, 1.84 mg/L Na3VO4 and 1.94 mg/L K2CrO4), 1.25 mg/L vitamins (1 mg/L vitamin B12, 1 mg/L biotin, 0.20 g/L thiamine HCl) and 20 g agar per liter], was inoculated into 50 mL liquid ONC-T18-GM0 medium, and incubated in a shaker incubator at 25° C. at 250 rpm for 36 hours. Half a milliliter of culture was transferred into a 1.5 mL tube and vortexed at full speed for 30 seconds, and then diluted in 50 mL sterilized water. One hundred microliters of the diluted inocula were respectively spread on the agar plates containing zeocin at various concentrations (0, 10, 30, 50, and 100 μg/mL). Plates were incubated at 25° C. incubator. The emergence and development of the colonies were observed daily. […] Under these conditions, zeocin was effective within the range of at least 10-200 μg/mL; higher concentrations may well also be effective. For example, concentrations in the range of 200-500 μg/mL or higher could work. […] Under the particular conditions utilized in the present Example, zeocin worked best at 50 μg/mL."}, "[6]": {"test_system": "wild type ONC-T18 strains", "test": "Growth on zeocin plates after six colony passages without zeocin, wild type (Example 12)", "assay_type": "cell-based, Thraustochytrium sp. ONC-T18", "settings": "zeocin 200 μg/mL media", "description": "as §1"}, "[7]": {"test_system": "transformed ONC-T18 strains bearing the zeocin-resistance gene expression cassette", "test": "Zeocin sensitivity, spotted colonies on agar plates, transformed strains (Example 8)", "assay_type": "cell-based, Thraustochytrium sp. ONC-T18", "settings": "5000 μg/mL zeocin", "description": "(§2) A very small amount of inoculum of zeocin-resistant strains that had been transferred three times via colony passages on zeocin/ONC-T18-GM0 agar plates (as well as their parental strain or the wild type strain) was picked from colonies using a 10 μL pipette tip and re-suspended in 50 μL sterilized water in a 200 μL PCR tube. One μL of the cell suspension was spotted on ONC-T18-GM0 agar plates containing 18 g/L sea salt (15 g/L agar) and zeocin at a concentration ranging from 0 to 5000 μg/mL (Invitrogen, CA, USA). The diameters of the spotted colonies were measured on day 1, day 3, day 5, day 7, and day 8."}, "[8]": {"test_system": "parental strain (the wild type strain) ONC-T18", "test": "Zeocin sensitivity, spotted colonies on agar plates, parental strain (Example 8)", "assay_type": "cell-based, Thraustochytrium sp. ONC-T18", "settings": "ONC-T18-GM0 agar plates, 18 g/L sea salt", "description": "as §2"}}}
{"smiles": "Cc1c(N)nc([C@H](CC(N)=O)NC[C@H](N)C(N)=O)nc1C(=O)N[C@H](C(=O)N[C@H](C)[C@@H](O)[C@H](C)C(=O)N[C@H](C(=O)NCCC1=N[C@@H](c2nc(C(=O)NCCCCN=C(N)N)cs2)CS1)[C@@H](C)O)[C@@H](O[C@@H]1O[C@@H](CO)[C@@H](O)[C@H](O)[C@@H]1O[C@H]1O[C@H](CO)[C@@H](O)[C@H](OC(N)=O)[C@@H]1O)c1cnc[nH]1", "note": "[Zeocin, phleomycin D1]", "values": [{"measurement": "zeocin concentration that completely inhibited growth of ONC-T18", "setting": "[1]; ONC-T18-GM0 agar plates containing 18 g/L sea salt", "result": 30, "unit": "µg/mL"}, {"measurement": "zeocin concentration needed for complete inhibition of ONC-T18", "setting": "[1]; ONC-T18-GM0 agar plates containing 35 g/L sea salt", "result": 100, "unit": "µg/mL"}, {"measurement": "colony numbers", "setting": "[1]; salt 5 g/L, zeocin 10 μg/mL", "result": 0}, {"measurement": "colony growth rates (diameter in mm)", "setting": "[1]; salt 5 g/L, zeocin 10 μg/mL", "result": 0, "unit": "mm"}, {"measurement": "colony numbers", "setting": "[1]; salt 5 g/L, zeocin 30 μg/mL", "result": 0}, {"measurement": "colony growth rates (diameter in mm)", "setting": "[1]; salt 5 g/L, zeocin 30 μg/mL", "result": 0, "unit": "mm"}, {"measurement": "colony numbers", "setting": "[1]; salt 5 g/L, zeocin 50 μg/mL", "result": 0}, {"measurement": "colony growth rates (diameter in mm)", "setting": "[1]; salt 5 g/L, zeocin 50 μg/mL", "result": 0, "unit": "mm"}, {"measurement": "colony numbers", "setting": "[1]; salt 5 g/L, zeocin 100 μg/mL", "result": 0}, {"measurement": "colony growth rates (diameter in mm)", "setting": "[1]; salt 5 g/L, zeocin 100 μg/mL", "result": 0, "unit": "mm"}, {"measurement": "colony numbers", "setting": "[1]; salt 8.5 g/L, zeocin 10 μg/mL", "result": 0}, {"measurement": "colony growth rates (diameter in mm)", "setting": "[1]; salt 8.5 g/L, zeocin 10 μg/mL", "result": 0, "unit": "mm"}, {"measurement": "colony numbers", "setting": "[1]; salt 8.5 g/L, zeocin 30 μg/mL", "result": 0}, {"measurement": "colony growth rates (diameter in mm)", "setting": "[1]; salt 8.5 g/L, zeocin 30 μg/mL", "result": 0, "unit": "mm"}, {"measurement": "colony numbers", "setting": "[1]; salt 8.5 g/L, zeocin 50 μg/mL", "result": 0}, {"measurement": "colony growth rates (diameter in mm)", "setting": "[1]; salt 8.5 g/L, zeocin 50 μg/mL", "result": 0, "unit": "mm"}, {"measurement": "colony numbers", "setting": "[1]; salt 8.5 g/L, zeocin 100 μg/mL", "result": 0}, {"measurement": "colony growth rates (diameter in mm)", "setting": "[1]; salt 8.5 g/L, zeocin 100 μg/mL", "result": 0, "unit": "mm"}, {"measurement": "colony numbers", "setting": "[1]; salt 18 g/L, zeocin 10 μg/mL", "result": 11}, {"measurement": "colony growth rates (diameter in mm)", "setting": "[1]; salt 18 g/L, zeocin 10 μg/mL", "result": 4.1, "unit": "mm"}, {"measurement": "colony numbers", "setting": "[1]; salt 18 g/L, zeocin 30 μg/mL", "result": 0}, {"measurement": "colony growth rates (diameter in mm)", "setting": "[1]; salt 18 g/L, zeocin 30 μg/mL", "result": 0, "unit": "mm"}, {"measurement": "colony numbers", "setting": "[1]; salt 18 g/L, zeocin 50 μg/mL", "result": 0}, {"measurement": "colony growth rates (diameter in mm)", "setting": "[1]; salt 18 g/L, zeocin 50 μg/mL", "result": 0, "unit": "mm"}, {"measurement": "colony numbers", "setting": "[1]; salt 18 g/L, zeocin 100 μg/mL", "result": 0}, {"measurement": "colony growth rates (diameter in mm)", "setting": "[1]; salt 18 g/L, zeocin 100 μg/mL", "result": 0, "unit": "mm"}, {"measurement": "colony numbers", "setting": "[1]; salt 35 g/L, zeocin 10 μg/mL", "result": 22.5}, {"measurement": "colony growth rates (diameter in mm)", "setting": "[1]; salt 35 g/L, zeocin 10 μg/mL", "result": 4.1, "unit": "mm"}, {"measurement": "colony numbers", "setting": "[1]; salt 35 g/L, zeocin 30 μg/mL", "result": 11}, {"measurement": "colony growth rates (diameter in mm)", "setting": "[1]; salt 35 g/L, zeocin 30 μg/mL", "result": 1.9, "unit": "mm"}, {"measurement": "colony numbers", "setting": "[1]; salt 35 g/L, zeocin 50 μg/mL", "result": 5}, {"measurement": "colony growth rates (diameter in mm)", "setting": "[1]; salt 35 g/L, zeocin 50 μg/mL", "result": 0.6, "unit": "mm"}, {"measurement": "colony numbers", "setting": "[1]; salt 35 g/L, zeocin 100 μg/mL", "result": 0}, {"measurement": "colony growth rates (diameter in mm)", "setting": "[1]; salt 35 g/L, zeocin 100 μg/mL", "result": 0, "unit": "mm"}, {"measurement": "growth of transformed strains", "setting": "[2]", "result": "only the transformed strains grew well"}, {"measurement": "sensitivity of ONC-T18 cells to zeocin", "setting": "[3]", "result": "highly sensitive"}, {"measurement": "effect on growth of ONC-T18 (summary in words)", "setting": "[3]; ONC-T18-GM0 agar plates", "result": "significantly inhibited the growth"}, {"measurement": "stability of zeocin", "setting": "[4]; high salt concentrations", "result": "unstable at high salt concentrations"}, {"measurement": "solubility of zeocin", "setting": "[4]; water", "result": "water soluble"}, {"measurement": "colonies seen per plate", "setting": "[5]; 50 μg/mL zeocin", "result": "Only a few of colonies were seen"}, {"measurement": "colony sectors with visible colony-morphology changes", "setting": "[5]; 50 μg/mL zeocin", "result": "observed in some of the colonies"}, {"measurement": "colony numbers per plate", "setting": "[5]; 10, 30, and 50 μg/mL zeocin", "result": "gradually reduced"}, {"measurement": "sizes of the colonies", "setting": "[5]; 30 to 50 μg/mL zeocin, six days post inoculation", "result": "gradually decreased"}, {"measurement": "concentration at which zeocin worked best as mutagen", "setting": "[5]; conditions of Example 13", "result": 50, "unit": "µg/mL"}, {"measurement": "concentration range in which zeocin was effective as mutagen", "setting": "[5]; conditions of Example 13", "result": "10 to 200", "unit": "µg/mL"}, {"measurement": "growth of wild type strains", "setting": "[6]", "result": "none of the wild type strains were able to grow"}, {"measurement": "growth of transformed strains", "setting": "[7]; compared with 1000 μg/mL or less", "result": "most strains grew remarkably slower"}, {"measurement": "zeocin resistance of some transformant strains", "setting": "[7]; e.g., FIG. 13 legend", "result": "highly resistant"}, {"measurement": "zeocin concentration at which the parental strain grew", "setting": "[8]", "result": "≤ 30", "unit": "µg/mL"}]}
